Assay results: US12415770B2, “Modulators of liver receptor homologue 1 (LRH-1) and uses” (Emory University, priority 2017, dated 2025)

Legend:
LRH-1 LBD = target: T1, LRH-1 LBD (Homo sapiens, UniProt O00482); assay: Thermofluor (DSF) assay, purified LRH-1 LBD-His protein; format: binding; details: 50 μM compound; relative to DLPC-bound LRH-1; read-out: ΔTm (mean +/− SEM) (° C.)
T1 construct: LRH-1 LBD (residues 299-541) in the pMSC7 vector was expressed in BL21 (DE3) pLysS E. coli; made in house; host or cells: E. coli BL21 (DE3) pLysS
T1 sequence (O00482 299-541): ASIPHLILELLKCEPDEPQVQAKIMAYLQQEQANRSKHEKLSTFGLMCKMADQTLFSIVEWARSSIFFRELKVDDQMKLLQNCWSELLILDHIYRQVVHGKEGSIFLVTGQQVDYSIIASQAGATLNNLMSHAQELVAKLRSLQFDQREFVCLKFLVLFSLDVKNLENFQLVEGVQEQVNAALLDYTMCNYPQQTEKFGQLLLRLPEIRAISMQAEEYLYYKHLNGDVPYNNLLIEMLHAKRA
Protocol: Thermofluor assays—Purified LRH-1 LBD-His protein (0.2 mg/ml) was incubated overnight with 50 μM of each compound at 4° C. The final DMSO concentration in the reactions was 1%. SYPRO orange dye (Invitrogen) was then added at a 1:1000 dilution. Reactions were heated at a rate of 0.5° C. per minute, using a StepOne Plus Real Time PCR System (ThermoFisher). […] Data were analyzed by first subtracting baseline fluorescence (ligands+SYPRO with no protein) and then fitting the curves using the Bolzman equation (GraphPad Prism, v6) to determine the Tm. […]

LRH-1 = target: T2, LRH-1 (Homo sapiens, UniProt O00482); assay: Luciferase reporter assay (SHP-luc) in HeLa cells transfected with full-length LRH-1; format: cell-based; details: for EC50 / EC50 (μM): HeLa cells, SHP-luc reporter, 24 hours, 0.03-30 μM; for Relative Efficacy: fold increase over baseline (DMSO-treated cells) relative to the fold increase induced by RJW100
T2 construct: The transfected plasmids included full-length LRH-1 in a pCI vector; expressed in transfected cells; host or cells: HeLa
T2 sequence (O00482 whole entry): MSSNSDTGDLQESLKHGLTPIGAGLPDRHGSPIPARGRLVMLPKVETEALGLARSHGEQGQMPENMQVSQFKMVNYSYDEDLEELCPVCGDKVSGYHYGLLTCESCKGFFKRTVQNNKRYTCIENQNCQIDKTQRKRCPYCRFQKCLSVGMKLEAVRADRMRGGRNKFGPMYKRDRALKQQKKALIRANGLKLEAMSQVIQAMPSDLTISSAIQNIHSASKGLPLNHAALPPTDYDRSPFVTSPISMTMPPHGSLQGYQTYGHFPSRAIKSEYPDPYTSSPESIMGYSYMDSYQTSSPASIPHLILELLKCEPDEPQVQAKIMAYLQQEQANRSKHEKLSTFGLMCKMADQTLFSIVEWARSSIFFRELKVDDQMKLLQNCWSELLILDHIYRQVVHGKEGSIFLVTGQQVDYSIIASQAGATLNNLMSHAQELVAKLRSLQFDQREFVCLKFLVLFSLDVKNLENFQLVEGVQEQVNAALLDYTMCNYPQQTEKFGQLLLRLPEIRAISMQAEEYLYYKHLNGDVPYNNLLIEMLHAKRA
Protocol: EC50 and Relative Activity values were calculated from luciferase reporter assays.

SMILES | ΔTm at 50 µM (LRH-1 LBD) | EC50 (LRH-1) | Relative Efficacy (LRH-1) | EC50 (μM) (LRH-1)
C=C(c1ccccc1)[C@@]12CC[C@@H](O)[C@@H]1CC(CCCCCCC(=O)O)=C2c1ccccc1 (relative stereo) [Compound 8f, 7-(6-exo-hydroxy-3-phenyl-3a-(1-phenylvinyl)-1,3a,4,5,6,6a-hexahydropentalen-2-yl)heptanoic acid] | 3.7 °C | 4000 nM | 1.17 | 
C=C(c1ccccc1)[C@@]12CC[C@@H](O)[C@@H]1CC(CCCCCCCCO)=C2c1ccccc1 (relative stereo) [Compound 9e, Exo-5-(8-hydroxyoctyl)-4-phenyl-3a-(1-phenylvinyl)-1,2,3,3a,6,6a-hexahydropentalen-1-ol] | 4 °C | 700 nM | 1.52 | 
C=C(c1ccccc1)[C@@]12CC[C@@H](O)[C@@H]1CC(CCCCCCCC(=O)O)=C2c1ccccc1 (relative stereo) [Compound 9f, 8-(6-exo-hydroxy-3-phenyl-3a-(1-phenylvinyl)-1,3a,4,5,6,6a-hexahydropentalen-2-yl)octanoic acid] | 4.4 °C | 4000 nM | 2.48 | 
C=C(c1ccccc1)[C@@]12CC[C@@H](O)[C@@H]1CC(CCCCCCCCC(=O)O)=C2c1ccccc1 (relative stereo) [Compound 10f, 9-(6-exo-hydroxy-3-phenyl-3a-(1-phenylvinyl)-1,3a,4,5,6,6a-hexahydropentalen-2-yl)nonanoic acid] | 3 °C | 1800 nM | 3.39 | 
C=C(c1ccccc1)[C@@]12CC[C@@H](O)[C@@H]1CC(CCCCCCCCCOP(=O)([O-])OCC[N+](C)(C)C)=C2c1ccccc1 (relative stereo) [Compound 10g, 9-(6-exo-hydroxy-3-phenyl-3a-(1-phenylvinyl)-1,3a,4,5,6,6a-hexahydropentalen-2-yl)nonyl (2-(trimethylammonio)ethyl) phosphate] | < 1 °C | 2000 nM | 2.74 | 
C=C(c1ccccc1)[C@@]12CC[C@@H](O)[C@@H]1CC(CCCCCCCCCCOP(=O)([O-])OCC[N+](C)(C)C)=C2c1ccccc1 (relative stereo) [Compound 11g, 10-(6-exo-hydroxy-3-phenyl-3 a-(1-phenylvinyl)-1,3a,4,5,6,6a-hexahydropentalen-2-yl)decyl (2-(trimethylammonio)ethyl) phosphate] | -2.4 °C | 5000 nM | 2.48 | 
C=C(c1ccccc1)[C@@]12CC[C@@H](O)[C@@H]1CC(CCCCCCCCCCC(=O)O)=C2c1ccccc1 (relative stereo) [Compound 12f, 11-(6-exo-hydroxy-3-phenyl-3a-(1-phenylvinyl)-1,3a,4,5,6,6a-hexahydropentalen-2-yl)undecanoic acid] | 2.5 °C | 300 nM | 1.74 | 
C=C(c1ccccc1)[C@@]12CCC(=O)C1CC(CCCCCC)=C2c1ccccc1 (stereo in doubt) [Compound 27, 5-hexyl-4-phenyl-3a-(1-phenylvinyl)-3,3a,6,6a-tetrahydropentalen-1 (2H)-one] | < 1 °C |  | −0.42 | 
C=C(c1ccccc1)C12CCC(O)C1CC(CCCC(=O)O)=C2c1ccccc1 (stereo not drawn) [Compound 5f, 4-(6-exo-hydroxy-3-phenyl-3a-(1-phenylvinyl)-1,3a,4,5,6,6a-hexahydropentalen-2-yl)butanoic acid] | 2.3 °C |  | 1.43 | cnc
C=C(c1ccccc1)C12CCC(O)C1CC(CCCCOP(=O)([O-])OCC[N+](C)(C)C)=C2c1ccccc1 (stereo not drawn) [Compound 5g, 4-(6-exo-hydroxy-3-phenyl-3a-(1-phenylvinyl)-1,3a,4,5,6,6a-hexahydropentalen-2-yl)butyl (2-(trimethylammonio)ethyl) phosphate] | < 1 °C |  | 0.33 | cnc
C=C(c1ccccc1)C12CCC(O)C1CC(CCCCCO)=C2c1ccccc1 (stereo not drawn) [Compound 6e, Exo-5-(5-hydroxypentyl)-4-phenyl-3a-(1-phenylvinyl)-1,2,3,3a,6,6a-hexahydropentalen-1-ol] | 2.4 °C |  | 1.57 | cnc
C=C(c1ccccc1)C12CCC(O)C1CC(CCCCC(=O)O)=C2c1ccccc1 (stereo not drawn) [Compound 6f, 5-(6-exo-hydroxy-3-phenyl-3a-(1-phenylvinyl)-1,3a,4,5,6,6a-hexahydropentalen-2-yl)pentanoic acid] | 1.3 °C |  | 0.60 | cnc
C=C(c1ccccc1)C12CCC(O)C1CC(CCCCCOP(=O)([O-])OCC[N+](C)(C)C)=C2c1ccccc1 (stereo not drawn) [Compound 6g, 5-(6-exo-hydroxy-3-phenyl-3a-(1-phenylvinyl)-1,3a,4,5,6,6a-hexahydropentalen-2-yl)pentyl (2-(trimethylammonio)ethyl) phosphate] | < 1 °C |  | 0.00 | cnc
C=C(c1ccccc1)C12CCC(O)C1CC(CCCCCCO)=C2c1ccccc1 (stereo not drawn) [Compound 7e, Exo-5-(6-hydroxyhexyl)-4-phenyl-3a-(1-phenylvinyl)-1,2,3,3a,6,6a-hexahydropentalen-1-ol] | 3.3 °C | 1000 nM | 1.74 | 
C=C(c1ccccc1)C12CCC(O)C1CC(CCCCCCOP(=O)([O-])OCC[N+](C)(C)C)=C2c1ccccc1 (stereo not drawn) [Compound 7g, 6-(6-exo-hydroxy-3-phenyl-3a-(1-phenylvinyl)-1,3a,4,5,6,6a-hexahydropentalen-2-yl)hexyl(2-(trimethylammonio)ethyl) phosphate] | < 1 °C |  | 0.00 | cnc
C=C(c1ccccc1)C12CCC(O)C1CC(CCCCCCCOP(=O)([O-])OCC[N+](C)(C)C)=C2c1ccccc1 (stereo not drawn) [Compound 8g, 7-(6-exo-hydroxy-3-phenyl-3a-(1-phenylvinyl)-1,3a,4,5,6,6a-hexahydropentalen-2-yl)heptyl (2-(trimethylammonio)ethyl) phosphate] | 2.9 °C |  | 0.81 | cnc
C=C(c1ccccc1)C12CCC(O)C1CC(CCCCCCCCOP(=O)([O-])OCC[N+](C)(C)C)=C2c1ccccc1 (stereo not drawn) [Compound 9g, 8-(6-exo-hydroxy-3-phenyl-3a-(1-phenylvinyl)-1,3a,4,5,6,6a-hexahydropentalen-2-yl)octyl (2-(trimethylammonio)ethyl) phosphate] | 5.6 °C | > 30000 nM | 1.12 | 
C=C(c1ccccc1)C12CCC(O)C1CC(CCCCCCCCCO)=C2c1ccccc1 (stereo not drawn) [Compound 10e, Exo-5-(9-hydroxynonyl)-4-phenyl-3a-(1-phenylvinyl)-1,2,3,3a,6,6a-hexahydropentalen-1-ol] | 4.1 °C | 1000 nM | 1.30 | 
C=C(c1ccccc1)C12CCC(O)C1CC(CCCCCCCCCCO)=C2c1ccccc1 (stereo not drawn) [Compound 11e, Exo-5-(10-hydroxydecyl)-4-phenyl-3a-(1-phenylvinyl)-1,2,3,3a,6,6a-hexahydropentalen-1-ol] | < 1 °C | 2000 nM | 2.83 | 
C=C(c1ccccc1)C12CCC(O)C1CC(CCCCCCCCCCCO)=C2c1ccccc1 (stereo not drawn) [Compound 12e, Exo-5-(11-hydroxyundecyl)-4-phenyl-3a-(1-phenylvinyl)-1,2,3,3a,6,6a-hexahydropentalen-1-ol] | 4.7 °C | 2000 nM | 0.87 | 
